Test results taken from US20140364431A1, “Quinoline and cinnoline derivatives and their applications” (Shenyang Pharmaceutical University, priority 2011, published 2014).
pIC50: −log10 of the molar value. In brackets after ≈: the same amount, converted by molar mass. Read-outs that look alike come from different tables or passages of the source.

What was measured:
[1] = system: SMMC-7721 (hepatoma cell); experiment: In vitro anti-tumor cellular activity (MTT), SMMC-7721; type: cell-based, human; details: for IC50: Homo sapiens, read-out: SMMC-7721 IC50
[2] = system: U87MG (Human malignant glioblastoma cells); experiment: In vitro anti-tumor cellular activity (MTT), U87MG; type: cell-based; details: for IC50: Homo sapiens, U-87 MG, read-out: U87MG IC50
[3] = system: HT-29 (colon cancer cell); experiment: In vitro anti-tumor cellular activity (MTT), HT-29; type: cell-based, human; details: for IC50: Homo sapiens, read-out: HT-29 IC50
[4] = system: H460 (human lung cancer cell); experiment: In vitro anti-tumor cellular activity (MTT), H460; type: cell-based; details: for IC50: Homo sapiens, read-out: H460 IC50
[5] = system: MKN-45 (human gastric carcinoma cell); experiment: In vitro anti-tumor cellular activity (MTT), MKN-45; type: cell-based; details: MTT, 72 hours, MKN-45
[6] = molecular target: T1, c-Met (His-tagged recombinant human Met (Amino acids 974-ends)) (Homo sapiens, UniProt P08581); experiment: c-Met kinase assay (ELISA); type: biochemical; details: 50 pM c-Met, 5 μM ATP, 20 min
T1 construct: His-tagged recombinant human Met (Amino acids 974-ends); His; host or cells: baculovirus expression
Description: c-Met kinase activity was measured with an ELISA reader.
The reaction mixture was removed by washing with 0.2 μg/mL conjugated horseradish peroxidase (HRP) monoclonal antibody specific for phosphotyrosine (PY20) detecting phosphorylation of the substrate polymer. 1M phosphoric acid was added to terminate the color, the chromogenic substrate (TMB) was tested by spectrophotometry at 450 nm.

T1 sequence (P08581 974-1390 limits assumed): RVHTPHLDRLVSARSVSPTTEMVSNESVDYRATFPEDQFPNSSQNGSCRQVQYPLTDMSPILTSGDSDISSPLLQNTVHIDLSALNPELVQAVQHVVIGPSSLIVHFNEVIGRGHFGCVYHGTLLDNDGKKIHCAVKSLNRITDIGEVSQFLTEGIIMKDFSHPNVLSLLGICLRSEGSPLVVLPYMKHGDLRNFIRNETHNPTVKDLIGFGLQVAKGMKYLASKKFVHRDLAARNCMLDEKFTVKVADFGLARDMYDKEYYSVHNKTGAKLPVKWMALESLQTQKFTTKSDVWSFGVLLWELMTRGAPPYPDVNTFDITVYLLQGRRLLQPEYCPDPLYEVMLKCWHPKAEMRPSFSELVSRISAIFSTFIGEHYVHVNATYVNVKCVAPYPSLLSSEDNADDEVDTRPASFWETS

Compound	SMMC-7721 IC50 ([1]; MTT, 72 hours, SMMC-7721) [µg/mL]	U87MG IC50 ([2]; MTT, 72 hours, U87MG) [µg/mL]	HT-29 IC50 ([3]; MTT, 72 hours, HT-29) [µg/mL]	H460 IC50 ([4]; MTT, 72 hours, H460) [µg/mL]	MKN-45 IC50 [5] [µg/mL]	further results
COc1cc2c(Oc3ccc(NC(=O)c4nn(-c5cccc(F)c5)c5ccccc5c4=O)cc3F)cnnc2cc1OCCCN1CCCCC1 [Example 64, N-(3-fluoro-4-((6-methoxy-7-(3-(piperidin-1-yl)propoxy)cinnolin-4-yl)oxy)phenyl)-1-(3-fluorophenyl)-4-oxo-1,4-dihydrocinnoline-3-carboxamide]						IC50 ([1]; MTT, 72 hours, SMMC-7721): 1.9 µg/mL (≈ 2.74 µM); IC50 ([2]; MTT, 72 hours, U87MG): 2.7 µg/mL (≈ 3.9 µM); IC50 ([3]; MTT, 72 hours, HT-29): 3.2 µg/mL (≈ 4.62 µM); IC50 ([4]; NCI-H460, MTT, 72 hours, H460): 1.8 µg/mL (≈ 2.6 µM); IC50 ([5]; Homo sapiens, read-out: MKN-45 IC50): 3.3 µg/mL (≈ 4.76 µM)
COc1cc2c(Oc3ccc(NC(=O)c4nn(-c5ccc(Br)cc5)c5ccccc5c4=O)cc3F)cnnc2cc1OCCCN1CCCCC1 [Example 65, N-(3-fluoro-4-((6-methoxy-7-(3-(piperidin-1-yl)propoxy)cinnolin-4-yl)oxy)phenyl)-1-(4-bromophenyl)-4-oxo-1,4-dihydrocinnoline-3-carboxamide]						pIC50 [6]: 6.04
COc1cc2c(Oc3ccc(NC(=O)c4nn(-c5ccc(Cl)cc5Cl)c5ccccc5c4=O)cc3F)cnnc2cc1OCCCN1CCCC1 [Example 70, N-(3-fluoro-4-((6-methoxy-7-(3-(pyrrolidin-1-yl)propoxy)cinnolin-4-yl)oxy)phenyl)-1-(2,4-dichlorophenyl)-4-oxo-1,4-dihydrocinnoline-3-carboxamide]						IC50 ([1]; SMMC-7721, 72 h): 1.8 µg/mL (≈ 2.47 µM); pIC50 [6]: 6.02; IC50 ([2]; 72 h): 2.1 µg/mL (≈ 2.88 µM); IC50 ([3]; HT-29, 72 h): 3.2 µg/mL (≈ 4.39 µM); IC50 ([4]; NCI-H460, 72 h): 2.6 µg/mL (≈ 3.56 µM)
N-(3-fluoro-4-((6-methoxy-7-(3-(4-methylpiperazin-1-yl)propoxy)quinolin-4-yl)oxy)phenyl)-1-(4-bromophenyl)-4-oxo-1,4-dihydrocinnoline-3-carboxamide [Example 40]						c-Met IC50 [6]: 0.9 µg/mL
N-(3-fluoro-4-((6-methoxy-7-(3-(4-methylpiperidin-1-yl)propoxy)quinolin-4-yl)oxy)phenyl)-1-(2-fluorophenyl)-4-oxo-1,4-dihydrocinnoline-3-carboxamide [Example 14]	1.1	0.15	0.31	0.47	0.45	
N-(3-fluoro-4-((6-methoxy-7-(3-(4-methylpiperidin-1-yl)propoxy)quinolin-4-yl)oxy)phenyl)-1-(4-fluorophenyl)-4-oxo-1,4-dihydrocinnoline-3-carboxamide [Example 13]	0.67	0.45	0.18	0.081	0.23	
N-(3-fluoro-4-((6-methoxy-7-(3-(morpholin-4-yl)propoxy)quinolin-4-yl)oxy)phenyl)-1-(2-f luorophenyl)-4-oxo-1,4-dihydrocinnoline-3-carboxamide [Example 45]	2.3	2.1	0.87	1	1.6	
N-(3-fluoro-4-((6-methoxy-7-(3-(piperidin-1-yl)propoxy)quinolin-4-yl)oxy)phenyl)-1-(2-(tr ifluoromethyl)phenyl)-4-oxo-1,4-dihydrocinnoline-3-carboxamide dihydrochloride [Example 5]	0.25	1.2	0.42	0.77	0.2	
N-(3-fluoro-4-((6-methoxy-7-(3-(piperidin-1-yl)propoxy)quinolin-4-yl)oxy)phenyl)-1-(2-ch lorophenyl)-4-oxo-1,4-dihydrocinnoline-3-carboxamide dihydrochloride [Example 2]	0.3	0.35	0.19	0.052	0.007	
N-(3-fluoro-4-((6-methoxy-7-(3-(pyrrolidin-1-yl)propoxy)quinolin-4-yl)oxy)phenyl)-1-(3,4-difluorophenyl)-4-oxo-1,4-dihydrocinnoline-3-carboxamide [Example 12]	0.67	0.55	0.41	0.91	1.2	
